This is an account of results in patent EP3628672A1 (priority 2018, dated 2020).

Where two headings read alike, the source gives them in different places.

Experiment [1] deals with T1, purified LasB protein from P. aeruginosa (Pseudomonas aeruginosa, UniProt P14756).
T1 construct: purchased Merck or Charles River Laboratories
In words: Fluorometric assay to determine Ki (Abz-Ala-Gly-Leu-Ala-p-Nitro-Benzyl-Amide substrate). In kind it is biochemical. Put shortly:
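Purified P. aeruginosa LasB (10–140 ng/ml) with 250 µM Abz-Ala-Gly-Leu-Ala-p-nitrobenzylamide in 50 mM Tris-HCl pH 7.4, 2.5 mM CaCl2, 0.01% Triton X100, 37 °C; hydrolysis fluorescence (Ex 340/Em 415 nm) followed over 30 min, inhibitor 0.0016–200 µM. Ki = IC50/(1+[S]/Km), Km 214 µM.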

In experiment [2] the target is T2, LasB (Pseudomonas aeruginosa, UniProt P14756).
T2 construct: uses as source of enzyme dialysed supernatant from P. aeruginosa PAO1; endogenous in cells; host or cells: P. aeruginosa PAO1 culture supernatant, filtered and dialysed
Put plainly: Elastin assay to determine % inhibition (Elastin Congo-Red, dialysed culture supernatant). Format: biochemical, P. aeruginosa PAO1. The settings on record: read-out: Elastin hydrolysis % inhibition @ 50 / 25 µM inhibitor concentration. In outline:
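Enzyme source was dialysed PAO1 culture supernatant (50 mM Tris-HCl pH 7.4, 2.5 mM CaCl2), mixed with Elastin Congo-Red and 0.01% Triton X-100. Compound was routinely 50 to 1.56 µM, incubated overnight at 37 °C with shaking. Dye release at OD495 gave % inhibition relative to DMSO and no-enzyme controls.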

T2 sequence (P14756 198-498): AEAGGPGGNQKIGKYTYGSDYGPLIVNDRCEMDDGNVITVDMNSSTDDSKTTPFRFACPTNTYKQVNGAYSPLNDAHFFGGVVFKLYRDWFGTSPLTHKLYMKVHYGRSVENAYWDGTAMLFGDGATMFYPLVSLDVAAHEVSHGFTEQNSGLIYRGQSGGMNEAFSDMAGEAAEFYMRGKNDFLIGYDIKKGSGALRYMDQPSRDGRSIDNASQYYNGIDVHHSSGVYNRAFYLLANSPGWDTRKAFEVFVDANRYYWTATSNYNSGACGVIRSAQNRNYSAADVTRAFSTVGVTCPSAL
T1 sequence (P14756 198-498): as above

The Ki is the dissociation constant of the complex between target and ligand, obtained from inhibition or displacement. `Cn1cc[n+](C)c1CCOc1ccc(-c2csc(CNC(=O)C3(CC(=O)[O-])Cc4ccccc4C3)n2)cc1` [Example 87, 2-[2-[[4-[4-[2-(1,3-dimethylimidazol-1-ium-2-yl)ethoxy]phenyl]thiazol-2-yl]methylcarbamoyl]indan-2-yl]acetate]: the Ki in experiment [1] fell in the range of 50 to 200 nM. The inhibition at 25 µM in experiment [2] fell in the range of 10 to 60%.

For `COc1cc(OCCN2CCN(C(C)=O)CC2)ccc1-c1csc(CNC(=O)C2(CC(=O)O)Cc3ccccc3C2)n1` [Example 88], in experiment [1], the Ki is less than 50 nM. Besides, the inhibition at 25 µM in experiment [2] is more than 75%.

Turning to `Cn1cc(-c2csc(CNC(=O)C3(CC(=O)O)Cc4ccccc4C3)n2)cn1` [Example 89, 2-[2-[[4-(1-methylpyrazol-4-yl)thiazol-2-yl]methylcarbamoyl]indan-2-yl]acetic acid], in experiment [1], the Ki fell in the range of 50 to 200 nM. The inhibition at 25 µM in experiment [2] fell in the range of 60 to 75%.

`Cn1ccc(-c2csc(CNC(=O)C3(CC(=O)O)Cc4ccccc4C3)n2)n1` [Example 90, 2-[2-[[4-(1-methylpyrazol-3-yl)thiazol-2-yl]methylcarbamoyl]indan-2-yl]acetic acid]: the inhibition constant Ki in experiment [1] was in the range of 200 to 10000 nM. The inhibition at 25 µM in experiment [2] was in the range of 60 to 75%.

As for `Cc1c(-c2csc(CNC(=O)C3(CC(=O)O)Cc4ccccc4C3)n2)cnn1C` [Example 91, 2-[2-[[4-(1,5-dimethylpyrazol-4-yl)thiazol-2-yl]methylcarbamoyl]indan-2-yl]acetic acid], the Ki in experiment [1] fell in the range of 50 to 200 nM. The inhibition at 25 µM in experiment [2] is more than 75%.

Compound `Cn1nccc1-c1csc(CNC(=O)C2(CC(=O)O)Cc3ccccc3C2)n1` [Example 92, 2-[2-[[4-(2-methylpyrazol-3-yl)thiazol-2-yl]methylcarbamoyl]indan-2-yl]acetic acid] displayed a Ki in experiment [1] of 50 to 200 nM. In experiment [2], the inhibition at 25 µM fell in the range of 60 to 75%.

Turning to `Cc1nn(C)cc1-c1csc(CNC(=O)C2(CC(=O)O)Cc3ccccc3C2)n1` [Example 93, 2-[2-[[4-(1,3-dimethylpyrazol-4-yl)thiazol-2-yl]methylcarbamoyl]indan-2-yl]acetic acid], in experiment [1], the Ki lay in the range of 50 to 200 nM. Also, the inhibition at 25 µM in experiment [2] lay within 60 to 75%.

As to `O=C(O)CC1(C(=O)NCc2nc(-c3cncnc3)cs2)Cc2ccccc2C1` [Example 94, 2-[2-[(4-pyrimidin-5-ylthiazol-2-yl)methylcarbamoyl]indan-2-yl]acetic acid], in experiment [1], the Ki was 200 to 10000 nM. The inhibition at 25 µM in experiment [2] fell in the range of 60 to 75%.

`O=C(O)CC1(C(=O)NCc2nc(-c3ccncc3)cs2)Cc2ccccc2C1` [Example 95, 2-[2-[[4-(4-pyridyl)thiazol-2-yl]methylcarbamoyl]indan-2-yl]acetic acid] yielded a Ki in experiment [1] of 200 to 10000 nM. For the same compound, in experiment [2], the inhibition at 25 µM lay in the range of 60 to 75%.

In turn, `O=C(O)CC1(C(=O)NCc2nc(-c3cnn(CCN4CCOCC4)c3)cs2)Cc2ccccc2C1` [Example 96, 2-[2-[[4-[1-(2-morpholinoethyl)pyrazol-4-yl]thiazol-2-yl]methylcarbamoyl]indan-2-yl]acetic acid] showed a Ki in experiment [1] of 50 to 200 nM. Besides, the inhibition at 25 µM in experiment [2] was 60 to 75%.

On to `Cc1cc(-c2csc(CNC(=O)C3(CC(=O)O)Cc4ccccc4C3)n2)n[nH]1` [Example 98, 2-[2-[[4-(5-methyl-1H-pyrazol-3-yl)thiazol-2-yl]methylcarbamoyl]indan-2-yl] acetic acid], for which the Ki in experiment [1] was 200 to 10000 nM. Besides, the inhibition at 25 µM in experiment [2] fell in the range of 60 to 75%.

The compound `O=C(O)CC1(C(=O)NCc2nc(-c3cnn(CCCN4CCOCC4)c3)cs2)Cc2ccccc2C1` [Example 99, 2-[2-[[4-[1-(3-morpholinopropyl)pyrazol-4-yl]thiazol-2-yl]methylcarbamoyl]indan-2-yl]acetic acid] gave a Ki in experiment [1] of 50 to 200 nM. In experiment [2], the inhibition at 25 µM was in the range of 60 to 75%.

As for `CN1CCN(C(=O)Cn2cc(-c3csc(CNC(=O)C4(CC(=O)O)Cc5ccccc5C4)n3)cn2)CC1` [Example 101], in experiment [1] (Ki calculated from IC50, [S] = 250 µM, Km = 214 µM, 37°C, pH 7.4), the Ki is 200 to 10000 nM. In addition, the inhibition at 25 µM in experiment [2] is 60 to 75%.

For `CN1CCC(n2cc(-c3csc(CNC(=O)C4(CC(=O)O)Cc5ccccc5C4)n3)cn2)CC1` [Example 102, 2-[2-[[4-[1-(1-methyl-4-piperidyl)pyrazol-4-yl]thiazol-2-yl]methylcarbamoyl]indan-2-yl]acetic acid], the Ki in experiment [1] was in the range of 200 to 10000 nM. For the same compound, the inhibition at 25 µM in experiment [2] was 60 to 75%.

`CN(C)CC(=O)N1CCC(n2cc(-c3csc(CNC(=O)C4(CC(=O)O)Cc5ccccc5C4)n3)cn2)CC1` [Example 103, 2-[2-[[4-[1-[1-[2-(dimethylamino)acetyl]-4-piperidyl]pyrazol-4-yl]thiazol-2-yl]methylcarbamoyl]indan-2-yl]acetic acid]: the Ki in experiment [1] is 200 to 10000 nM. In experiment [2], the inhibition at 25 µM fell in the range of 60 to 75%.

With `CN1CCN(C(=O)N2CCC(n3cc(-c4csc(CNC(=O)C5(CC(=O)O)Cc6ccccc6C5)n4)cn3)CC2)CC1` [Example 104, 2-[2-[[4-[1-[1-(4-methylpiperazine-1-carbonyl)-4-piperidyl]pyrazol-4-yl]thiazol-2-yl]methylcarbamoyl]indan-2-yl]acetic acid], in experiment [1], the Ki was in the range of 50 to 200 nM. Also, the inhibition at 25 µM in experiment [2] was in the range of 60 to 75%.

On to `CN1CCN(C(=O)CN2CCC(n3cc(-c4csc(CNC(=O)C5(CC(=O)O)Cc6ccccc6C5)n4)cn3)CC2)CC1` [Example 105, 2-[2-[[4-[1-[1-[2-(4-methylpiperazin-1-yl)-2-oxo-ethyl]-4-piperidyl]pyrazol-4-yl]thiazol-2-yl]methylcarbamoyl]indan-2-yl]acetic acid], for which, in experiment [1], the Ki fell in the range of 50 to 200 nM. Also, the inhibition at 25 µM in experiment [2] was in the range of 60 to 75%.

`CC(=O)N1CCN(CCCn2cc(-c3csc(CNC(=O)C4(CC(=O)O)Cc5ccccc5C4)n3)cn2)CC1` [Example 106, 2-[2-[[4-[1-[3-(4-acetylpiperazin-1-yl)propyl]pyrazol-4-yl]thiazol-2-yl]methylcarbamoyl]indan-2-yl]acetic acid] showed a Ki in experiment [1] of 50 to 200 nM. For the same compound, the inhibition at 25 µM in experiment [2] lay in the range of 60 to 75%.

For `CN1CCN(CCCn2cc(-c3csc(CNC(=O)C4(CC(=O)O)Cc5ccccc5C4)n3)cn2)CC1` [Example 108, 2-[2-[[4-[1-[3-(4-methylpiperazin-1-yl)propyl]pyrazol-4-yl]thiazol-2-yl]methylcarbamoyl]indan-2-yl]acetic acid], the Ki in experiment [1] lay in the range of 50 to 200 nM. Moreover, in experiment [2], the inhibition at 25 µM fell in the range of 60 to 75%.

Regarding `O=C(O)CC1(C(=O)NCc2nc(-c3cnn(CCCN4CCCOCC4)c3)cs2)Cc2ccccc2C1` [Example 109, 2-[2-[[4-[1-[3-(1,4-oxazepan-4-yl)propyl]pyrazol-4-yl]thiazol-2-yl]methylcarbamoyl]indan-2-yl]acetic acid], the Ki in experiment [1] lay in the range of 50 to 200 nM. The inhibition at 25 µM in experiment [2] fell in the range of 60 to 75%.

The compound `COC1CCN(CCCn2cc(-c3csc(CNC(=O)C4(CC(=O)O)Cc5ccccc5C4)n3)cn2)CC1` [Example 110, 2-[2-[[4-[1-[3-(4-methoxy-1-piperidyl)propyl]pyrazol-4-yl]thiazol-2-yl]methylcarbamoyl]indan-2-yl]acetic acid] showed a Ki in experiment [1] of 50 to 200 nM. In addition, the inhibition at 25 µM in experiment [2] fell in the range of 60 to 75%.

For `CN1CCN(C(=O)N2CCN(CCCn3cc(-c4csc(CNC(=O)C5(CC(=O)O)Cc6ccccc6C5)n4)cn3)CC2)CC1` [Example 112, 2-[2-[[4-[1-[3-[4-(4-methylpiperazine-1-carbonyl)piperazin-1-yl]propyl]pyrazol-4-yl]thiazol-2-yl]methylcarbamoyl]indan-2-yl]acetic acid], the Ki in experiment [1] fell in the range of 50 to 200 nM. In addition, the inhibition at 25 µM in experiment [2] was in the range of 60 to 75%.
